# Reference: patent publication EP4458804A1, “METHOD FOR PRODUCING AN OBJECT, PHENALEN-1-ONE COMPOUND AND USE THEREOF” (TriOptoTec GmbH, priority 2023, dated 2024)
# Tests used:
# [1] = Leaching test A: screening immersion 24 h, UV-VIS of supernatant (Beispiel 10 A); format: physicochemical; parameters: Abs. nach Auswaschen: unit not given here; conditions: medium Wasser; for Berechneter Verlust in %: Rezeptur 1 nach Beispiel 1; for Abs. nach Auswaschen: Rezeptur 1 nach Beispiel 1, supernatant
# Protocol: Um das Auswaschen der verschiedenen Farbstoffe in den Kunststofffolien zu beurteilen, wurde ein Immersionstest in deionisiertem Wasser mit einem pH-Wert von (6 ± 1) (oder gegebenenfalls anderen Lösungsmitteln) und einer Wassertemperatur von (22 ± 3) °C für 24 Stunden durchgeführt.
# Dazu wurde ein Folienstück definierter Größe (3 cm x 3 cm) imprägniert (nach Rezeptur 1, Beispiel 1) und anschließend für 24 Stunden in eine definierte Menge deionisiertem Wasser (12,0 mL) gegeben und durch eine Schüttelplatte in Bewegung gehalten. Nach der angegeben Immersionszeit wurde die Folie entnommen und der Überschuss im UV-VIS Spektrometer vermessen, um die ausgewaschene Menge an Farbstoff zu bestimmen. Die Menge wird durch die definierte Größe der Folie und definierte Flüssigkeitsmenge auf einen Quadratzentimeter zurückgerechnet.
# Dieser Immersionstest diente dazu, das Auswaschverhalten verschiedener Farbstoffe aus verschiedenen Kunststofffolien zu beurteilen. Weiter sollte er dabei helfen, verschiedene Farbstoffklassen oder verschiedene Farbstoffderivate einer Farbstoffklasse bezüglich dieser Charakteristik miteinander zu vergleichen.
# Die zugeschnittenen Folien werden in einem geeigneten Behälter vollständig mit dem Prüfmedium (typischerweise deionisiertes Wasser) bedeckt. Anschließend wird der Behälter zugedeckt und auf die Schüttelplatte aufgebracht. Bei geringer Geschwindigkeit der Platte wird für 24 Stunden gewartet. Nach der Immersion wurden 3 mL des Überstandes durch Absorptionsspektroskopie vermessen.
# Die Auswertung erfolgte über das Verhältnis der max. Absorptionswerte einer reinen Farbstofflösung definierter Konzentration und des vermessenen Überstandes. Die Ergebnisse sind in Tabelle 50 dargestellt. Tabelle 50: Auswaschverhalten verschiedener Photokatalysatoren nach Immersionstest A
# [2] = Incorporation of photocatalysts into TPU films versus process time, absorption spectroscopy against blank film (Beispiele 7a-9b); format: physicochemical; conditions: Rezeptur 1
# Protocol: Im nächsten Schritt wurde die Verwendbarkeit der verschiedene Photokatalysatorklassen, ausgewählt aus Phenalen-1-on-Derivaten, Curcumin-Derivaten und Porphycen-Derivaten, mit unterschiedlichen Eigenschaften - von neutral unpolar bis ionisch polar - auf Ihre Verwendbarkeit und Wirkung im Verfahren untersucht.
# Zur Beurteilung der optimalen Prozesszeit bei Einsatz der Photokatalysatoren, wurden TPU Folienstücke nach Beschreibung in Beispiel 4 zu je 1, 2, 5 und 10 min in den Imprägnierlösungen behandelt, gegebenenfalls auch 30 und 60 min bei undeutlichen Ergebnissen.
# Als Basisformulierung wurde Rezeptur 1 nach Beispiel 2 verwendet.
# Nach der angegebenen Prozesszeit wurden die Folie entnommen, mit Wasser gewaschen und für 1h bei 40°C getrocknet/abgelüftet.
# Die Folien wurden durch Absorptionsspektroskopie gegen ein Blank-Folienstück direkt vermessen, beim Maximum der Absorption des Photokatalysators. Dabei ergaben sich in Abhängigkeit der Prozesszeit folgende Werte, die in den Tabellen 40 bis
# [3] = tested on: S.aureus ATCC 6538; assay: Antibacterial activity of impregnated films, modified ISO 22196 with illumination (Beispiele 11-16, 25); format: cell-based
# Text: Die Bestimmung der antimikrobiellen Aktivität erfolgte nach einer modifizierten Version der ISO 22196:2011-08 ("Messung von antibakterieller Aktivität auf Kunststoff- und anderen porenfreien Oberflächen", Ausgabedatum: 2011-08).
# Bei der Testdurchführung wurde ein dünner Flüssigkeitsfilm, in dem die Bakterien enthalten sind (1,25 x 10^4 /cm^2), direkt auf die Probenkörper (3 x 3 cm) aufgebracht. Direkt nach Beimpfung wurden von der Nullprobe die Bakterien von den Probenkörperoberflächen mittels Ultraschall und Vortexen abgelöst und die Keimzahl (KBE (engl. CFU), Kolonie-bildende Einheit) bestimmt (t0-Wert).
# Nach 4h wurden überlebende Bakterien von den Probenkörperoberflächen mittels Ultraschall und Vortexen abgelöst und die Keimzahl bestimmt (t4-Wert).
# Im Unterschied zu der in der ISO 22196:2011-08 beschreibenen Methode wurde das Inokulum nicht mit einer Folie abgedeckt und die Inkubationszeit wurde von 24 auf 4 Stunden reduziert. Weiterhin wurden die Probenkörper der Proben 3 und 4 mit Licht der Intensität 20mW/cm2 für 10min belichtet, um eine biozide Wirkung nach Bestrahlung mit elektromagnetischer Strahlung zu bestimmen.
# Verwendet wurden TPU Folienstücke, die nach dem in Beispiel 4 beschriebenen Verfahren mit Rezeptur 1 behandelt wurden. Rezeptur 1 wurde hergestellt nach Beispiel 2. […] Der Test wurde in Anlehnung an ISO 22196 nach oben beschriebener Methode durchgeführt.
# TPU-Folienstücke wurden ebenfalls nach dem in Beispiel 4 beschriebenen Verfahren mit verschiedenen Rezepturen behandelt, die gemäß Beispiel 2 hergestellt wurden. Die Farbstoffkonzentration in der Imprägnierlösung betrug jeweils 1 mM F-24b. Der Test wurde in Anlehnung an ISO 22196 nach oben beschriebener Methode durchgeführt.
# Die Farbstoffkonzentration in der Imprägnierlösung betrug jeweils 1 mM.
# Die Photokatalysator-Konzentration von F-24b wurde variiert.
# Es wurde ein Bakterientest in Anlehnung an ISO 22196 nach oben beschriebener Methode durchgeführt.
# [4] = Comparative examples 23-25: impregnation of unsuitable plastics or with a fluorescent dye, visual evaluation; format: physicochemical; conditions: TPU Folien
# Protocol: Die Farbstoffkonzentration in der Imprägnierlösung betrug jeweils 1 mM bei Phenalen-1-on- und Curcuminderivaten, 0,1 mM bei Prophycenderivaten.
# Es wurden 0,2 mm starke Polycarbonatfolien eingesetzt und mit Imprägnierlösungen enthaltend die Photokatalysatoren F-24b, F-64a oder F-73 behandelt.
# Es wurden TPU Folien eingesetzt und mit einer Imprägnierlösung enthaltend den Farbstoff 2-Chloro-6-(3-hydroxypropylamino)-1-phenalenon (CAS 113722-81-9) behandelt.
# [5] = tested on: S.aureus ATCC 6538; assay: Antibacterial activity of impregnated films, modified ISO 22196 with illumination (Beispiele 11-16, 25); format: cell-based; conditions: Beispiel 14; TPU film; Rezeptur 1 (nach Beispiel 1); 1 mM photocatalyst in impregnation solution; light 20mW/cm2 10min
# [6] = TPU Folie, Beispiel 7d, Tabelle 43
# [7] = Beispiel 7a neutral Phenalen-1-one, TPU film, process time 1 min, absorption at photocatalyst maximum vs blank film
# [8] = Beispiel 7a neutral Phenalen-1-one, TPU film, process time 2 min
# [9] = Beispiel 7a neutral Phenalen-1-one, TPU film, process time 5 min
# [10] = Beispiel 7a neutral Phenalen-1-one, TPU film, process time 10 min
# [11] = TPU Folie, Beispiel 8a, Tabelle 44
# [12] = Beispiel 9a neutral Porphycenderivate mit Hydroxyfunktion, TPU film, process time 10 min
compound,measurement,setting,value
"9-Acetoxy-2,7,12,17-tetra-(beta-methoxyethyl)porphycen [F-66]",Berechneter Verlust in %,[1]; plastic TPU,"2,0%"
same,Abs. nach Auswaschen,[1]; plastic TPU,"0,021"
same,Abs. 1 min,"[2]; Beispiel 9a, TPU film, process time 1 min, used as 0,1 mM Lösung","0,008"
same,Abs. 2 min,"[2]; Beispiel 9a, TPU film, process time 2 min, used as 0,1 mM Lösung","0,020"
same,Abs. 5 min,"[2]; Beispiel 9a, TPU film, process time 5 min, used as 0,1 mM Lösung","0,044"
same,Abs. 10 min,"[2]; Beispiel 9a, TPU film, process time 10 min, used as 0,1 mM Lösung","0,058"
"O=C1C(Cl)=Cc2ccc(NCCCO)c3cccc1c23 [2-Chloro-6-(3-hydroxypropylamino)-1-phenalenon, reference compound]",photodynamische Inaktivierung von S.aureus gegenüber den Kontrollen,[3]; TPU Folien dyed with the fluorescent dye (Beispiel 25),keine photodynamische Inaktivierung
same,Färbung der Folie,[4]; 30 min Einwirkzeit,homogen pink gefärbte Folien
same,Entfernbarkeit der Färbung,"[4]; Abreiben mit feuchtem Tuch, Waschen mit Wasser",weder durch Abreiben mit einem feuchten Tuch noch durch Waschen mit Wasser entfernt
O=C1C(S(=O)(=O)O)=Cc2cccc3cccc1c23 [F-01a],Log10 Reduktion Hauptprobe,[5],"1,4 ± 0,4 log10"
O=C1C=Cc2cc(S(=O)(=O)O)cc3cccc1c23 [F-01b],Abs. 10 min,[2]; [6],"0,008"
same,Abs. 30 min,[2]; [6],"0,011"
same,Abs. 60 min,[2]; [6],"0,065"
CCOC1=CC(=O)c2cccc3cccc1c23 [F-02],Berechneter Verlust in %,[1]; plastic Surlyn,"2,7%"
same,Abs. nach Auswaschen,[1]; plastic Surlyn,"0,009"
same,Abs. 1 min,[2]; [6],"0,125"
same,Abs. 2 min,[2]; [6],"0,229"
same,Abs. 5 min,[2]; [6],"0,475"
same,Abs. 10 min,[2]; [6],"0,590"
NCCCOC1=CC(=O)c2cccc3cccc1c23 [F-08],Log10 Reduktion Hauptprobe,"[3]; Beispiel 14, TPU film, Rezeptur 1 (nach Beispiel 1), 1 mM photocatalyst in impregnation solution, light 20mW/cm2 10min","4,0 ± 0,3 log10"
same,Abs. 1 min,[2]; [7],"0,003"
same,Abs. 2 min,[2]; [8],"0,015"
same,Abs. 5 min,[2]; [9],"0,016"
same,Abs. 10 min,[2]; [10],"0,023"
NCCOc1ccc2c3c(cccc13)C=CC2=O [F-09],Abs. 1 min,[2]; [7],"0,227"
same,Abs. 2 min,[2]; [8],"0,158"
same,Abs. 5 min,[2]; [9],"0,123"
same,Abs. 10 min,[2]; [10],"0,263"
NCCCOc1ccc2cccc3c2c1C(=O)C=C3 [F-10],Abs. 1 min,[2]; [7],"0,044"
same,Abs. 2 min,[2]; [8],"0,011"
same,Abs. 5 min,[2]; [9],"0,062"
same,Abs. 10 min,[2]; [10],"0,087"
O=C1C(COc2ccc(O)cc2)=Cc2cccc3cccc1c23 [F-12],Abs. 1 min,[2]; [7],"0,108"
same,Abs. 2 min,[2]; [8],"0,349"
same,Abs. 5 min,[2]; [9],"0,411"
same,Abs. 10 min,[2]; [10],>1
COC(=O)C(C)Oc1ccc(OCC2=Cc3cccc4cccc(c34)C2=O)cc1 (stereo not drawn) [F-19a],Abs. 1 min,[2]; [7],>1
same,Abs. 2 min,[2]; [8],>1
same,Abs. 5 min,[2]; [9],>1
same,Abs. 10 min,[2]; [10],>1
CC(Oc1ccc(OCC2=Cc3cccc4cccc(c34)C2=O)cc1)C(=O)O (stereo not drawn) [F-20a],Abs. 1 min,[2]; [7],"0,020"
same,Abs. 2 min,[2]; [8],"0,014"
same,Abs. 5 min,[2]; [9],"0,020"
same,Abs. 10 min,[2]; [10],"0,035"
NCCOc1ccc(/C=C/C(=O)C(C(=O)/C=C/c2ccc(OCCN)cc2)c2ccccc2)cc1 [F-64c],Abs. 5 min,[2]; [11],"0,61"
same,Abs. 10 min,[2]; [11],>1
COc1cc(/C=C/C(=O)CC(=O)/C=C/c2cc(Br)c(OCCN)c(OC)c2)cc(Br)c1OCCN [F-65],Log10 Reduktion Hauptprobe,[5],"1,3 ± 0,1 log10"
same,Abs. 1 min,[2]; [11],"0,08"
same,Abs. 10 min,[2]; [11],"0,87"
COCCC1=Cc2nc1ccc1[nH]c(cc1CCOC)c1nc(c(OC)cc3[nH]c2cc3CCOC)C(CCOC)=C1 [F-68],Abs. 10 min,[2]; [12],"1,01"
same,Abs. 30 min,"[2]; Beispiel 9a neutral Porphycenderivate mit Hydroxyfunktion, TPU film, process time 30 min",>1
same,Abs. 60 min,"[2]; Beispiel 9a neutral Porphycenderivate mit Hydroxyfunktion, TPU film, process time 60 min",>1
COCCC1=Cc2nc1ccc1[nH]c(cc1CCOC)c1nc(c(OCCCN)cc3[nH]c2cc3CCOC)C(CCOC)=C1 [F-71],Abs. 1 min,"[2]; Beispiel 9a neutral Porphycenderivate mit Hydroxyfunktion, TPU film, process time 1 min",0
same,Abs. 2 min,"[2]; Beispiel 9a neutral Porphycenderivate mit Hydroxyfunktion, TPU film, process time 2 min",0
same,Abs. 5 min,"[2]; Beispiel 9a neutral Porphycenderivate mit Hydroxyfunktion, TPU film, process time 5 min","0,032"
same,Abs. 10 min,[2]; [12],"0,04"
same,Abs. 10 min,"[2]; Beispiel 9b cationic Porphycenderivate, TPU film, process time 10 min","0,023"
same,Abs. 30 min,"[2]; Beispiel 9b cationic Porphycenderivate, TPU film, process time 30 min","0,062"
same,Abs. 60 min,"[2]; Beispiel 9b cationic Porphycenderivate, TPU film, process time 60 min","0,114"
COCCC1=Cc2nc1ccc1[nH]c(cc1CCOC)c1nc(c(OCCC(NC(=O)OC(C)(C)C)C(=O)O)cc3[nH]c2cc3CCOC)C(CCOC)=C1 (stereo not drawn) [F-78b],Abs. 10 min,[2]; [12],"0,670"
